# According to article PMC5218480 (PLoS ONE, 2017):
# System: MV-4-11 cells
# Assay: Gene expression microarray analysis (Affymetrix PrimeView) and GSEA
# Assay type: cell-based, human
# Design: RFU PODN (11730768_x_at) / Fold change /veh PODN (11730768_x_at) / RFU LINC00158 (11744669_a_at) / Fold change /veh LINC00158 (11744669_a_at) / RFU DUSP10 (11751237_a_at) / Fold change /veh DUSP10 (11751237_a_at) / RFU ID3 (11757404_x_at) / Fold change /veh ID3 (11757404_x_at) / RFU PLEKHG5 (11737974_s_at) / Fold change /veh PLEKHG5 (11737974_s_at) / RFU LRRC4B (11730491_at) / Fold change /veh LRRC4B (11730491_at) / RFU GIMAP4 (11747438_a_at) / Fold change /veh GIMAP4 (11747438_a_at) / RFU KRT8 (11758183_x_at) / Fold change /veh KRT8 (11758183_x_at) / RFU CNN1 (11734310_a_at) / Fold change /veh CNN1 (11734310_a_at) / RFU VPS37D (11726825_at) / Fold change /veh VPS37D (11726825_at) / RFU C10orf10 (11716522_x_at) / Fold change /veh C10orf10 (11716522_x_at) / RFU KIR2DL2 /// KIR2DL4 /// KIR2DL5A /// KIR2DL5B /// KIR2DS1 /// KIR2DS2 /// KIR2DS3 /// KIR2DS4 /// KIR3DL3 /// KIR3DL3 /// KIR3DS1 (11738374_at) / Fold change /veh KIR2DL2 /// KIR2DL4 /// KIR2DL5A /// KIR2DL5B /// KIR2DS1 /// KIR2DS2 /// KIR2DS3 /// KIR2DS4 /// KIR3DL3 /// KIR3DL3 /// KIR3DS1 (11738374_at) / RFU C1QL1 (11718748_at) / Fold change /veh C1QL1 (11718748_at) / RFU TMPRSS4 (11747572_a_at) / Fold change /veh TMPRSS4 (11747572_a_at) / RFU HAMP (11756126_x_at) / Fold change /veh HAMP (11756126_x_at) / RFU RNFT2 (11725882_a_at) / Fold change /veh RNFT2 (11725882_a_at) / RFU NR4A2 (11747474_a_at) / Fold change /veh NR4A2 (11747474_a_at) / RFU ABCC12 (11746883_a_at) / Fold change /veh ABCC12 (11746883_a_at) / RFU TMEM136 (11760407_x_at) / Fold change /veh TMEM136 (11760407_x_at) / RFU CLDN22 /// WWC2 (11732394_at) / Fold change /veh CLDN22 /// WWC2 (11732394_at) / RFU HLA-DPB1 (11760878_x_at) / Fold change /veh HLA-DPB1 (11760878_x_at) / RFU SPINT1 (11716480_a_at) / Fold change /veh SPINT1 (11716480_a_at) / RFU GAP43 (11754022_s_at) / Fold change /veh GAP43 (11754022_s_at) / RFU A4GNT (11735810_at) / Fold change /veh A4GNT (11735810_at) / RFU PRB3 (11715151_x_at) / Fold change /veh PRB3 (11715151_x_at) / RFU TUBB4B (11761932_at) / Fold change /veh TUBB4B (11761932_at) / RFU CAPN14 (11732068_a_at) / Fold change /veh CAPN14 (11732068_a_at) / RFU TMCC2 (11721928_a_at) / Fold change /veh TMCC2 (11721928_a_at) / RFU IRGQ (11745062_a_at) / Fold change /veh IRGQ (11745062_a_at) / RFU FAM174B (11720279_a_at) / Fold change /veh FAM174B (11720279_a_at) / RFU TMPRSS4 (11748680_a_at) / Fold change /veh TMPRSS4 (11748680_a_at) / RFU FAM212B (11763350_a_at) / Fold change /veh FAM212B (11763350_a_at) / RFU PLEKHG5 (11743358_a_at) / Fold change /veh PLEKHG5 (11743358_a_at) / RFU ZSCAN30 (11745921_a_at) / Fold change /veh ZSCAN30 (11745921_a_at) / RFU CMKLR1 (11741424_a_at) / Fold change /veh CMKLR1 (11741424_a_at) / RFU LOC101060620 /// MAPK8IP1 (11723275_at) / Fold change /veh LOC101060620 /// MAPK8IP1 (11723275_at) / RFU SPTSSB (11747773_x_at) / Fold change /veh SPTSSB (11747773_x_at) / RFU PRSS12 (11739890_at) / Fold change /veh PRSS12 (11739890_at) / RFU BIN1 (11741810_x_at) / Fold change /veh BIN1 (11741810_x_at) / RFU WNT11 (11732464_a_at) / Fold change /veh WNT11 (11732464_a_at) / RFU C10orf10 (11716521_a_at) / Fold change /veh C10orf10 (11716521_a_at) / RFU C5orf56 (11738089_at) / Fold change /veh C5orf56 (11738089_at) / RFU CYB561 (11721691_x_at) / Fold change /veh CYB561 (11721691_x_at) / RFU ANKRD19P (11752326_a_at) / Fold change /veh ANKRD19P (11752326_a_at) / RFU OR2T12 /// OR2T33 /// OR2T8 (11738714_s_at) / Fold change /veh OR2T12 /// OR2T33 /// OR2T8 (11738714_s_at) / RFU VCAN (11748164_a_at) / Fold change /veh VCAN (11748164_a_at) / RFU JSRP1 (11732532_at) / Fold change /veh JSRP1 (11732532_at) / RFU KRTAP10-11 (11738290_x_at) / Fold change /veh KRTAP10-11 (11738290_x_at) / RFU MYO3A (11730013_a_at) / Fold change /veh MYO3A (11730013_a_at) / RFU EBF3 (11725865_a_at) / Fold change /veh EBF3 (11725865_a_at) / RFU CAMK2N1 (11719241_x_at) / Fold change /veh CAMK2N1 (11719241_x_at) / RFU C5orf56 (11738088_a_at) / Fold change /veh C5orf56 (11738088_a_at) / RFU OLFML3 (11715873_a_at) / Fold change /veh OLFML3 (11715873_a_at) / RFU LOC100653217 /// NTM (11731650_a_at) / Fold change /veh LOC100653217 /// NTM (11731650_a_at) / RFU MAPK11 (11762145_a_at) / Fold change /veh MAPK11 (11762145_a_at) / RFU FIZ1 (11724087_x_at) / Fold change /veh FIZ1 (11724087_x_at) / RFU OASL (11726364_x_at) / Fold change /veh OASL (11726364_x_at) / RFU SOX15 (11748057_x_at) / Fold change /veh SOX15 (11748057_x_at) / RFU CD79A (11719716_a_at) / Fold change /veh CD79A (11719716_a_at) / RFU HIST1H1D (11736915_at) / Fold change /veh HIST1H1D (11736915_at) / RFU CASKIN2 (11723855_a_at) / Fold change /veh CASKIN2 (11723855_a_at) / RFU LOC730098 (11760151_x_at) / Fold change /veh LOC730098 (11760151_x_at) / RFU OR4N2 (11742367_at) / Fold change /veh OR4N2 (11742367_at) / RFU PRRT2 (11749266_a_at) / Fold change /veh PRRT2 (11749266_a_at) / RFU SNX32 (11753110_a_at) / Fold change /veh SNX32 (11753110_a_at) / RFU CDHR5 (11726645_a_at) / Fold change /veh CDHR5 (11726645_a_at) / RFU RCAN1 (11760418_a_at) / Fold change /veh RCAN1 (11760418_a_at) / RFU FAM167A (11723789_a_at) / Fold change /veh FAM167A (11723789_a_at) / RFU FAM26E (11764081_at) / Fold change /veh FAM26E (11764081_at) / RFU ISYNA1 (11749810_s_at) / Fold change /veh ISYNA1 (11749810_s_at) / RFU ACY1 (11761880_at) / Fold change /veh ACY1 (11761880_at) / RFU 11764098_at / Fold change /veh 11764098_at / RFU SAMD14 (11745864_x_at) / Fold change /veh SAMD14 (11745864_x_at) / RFU NPB (11741838_a_at) / Fold change /veh NPB (11741838_a_at) / RFU TMPRSS6 (11731388_a_at) / Fold change /veh TMPRSS6 (11731388_a_at) / RFU KRTAP10-2 (11738614_at) / Fold change /veh KRTAP10-2 (11738614_at) / RFU ARHGAP8 /// PRR5-ARHGAP8 (11727945_x_at) / Fold change /veh ARHGAP8 /// PRR5-ARHGAP8 (11727945_x_at) / RFU KRTAP5-7 /// NADSYN1 (11734609_at) / Fold change /veh KRTAP5-7 /// NADSYN1 (11734609_at) / RFU RASL12 (11751679_a_at) / Fold change /veh RASL12 (11751679_a_at) / RFU CDKN2B (11736163_a_at) / Fold change /veh CDKN2B (11736163_a_at) / RFU PRF1 (11729649_at) / Fold change /veh PRF1 (11729649_at) / RFU, ZNF638 /// ZNF638-IT1 / Fold change vs veh, ZNF638 /// ZNF638-IT1 / RFU, PANK3 / Fold change vs veh, PANK3 / RFU, SH3YL1 / Fold change vs veh, SH3YL1 / RFU, ZEB2 / Fold change vs veh, ZEB2 / RFU, NRIP1 / Fold change vs veh, NRIP1 / RFU, PTTG1IP / Fold change vs veh, PTTG1IP / RFU, CAPN2 / Fold change vs veh, CAPN2 / RFU, MED14 / Fold change vs veh, MED14 / RFU, SNORA58 / Fold change vs veh, SNORA58 / RFU, C1orf63 / Fold change vs veh, C1orf63 / RFU, LRRFIP1 / Fold change vs veh, LRRFIP1 / RFU, NDUFAF7 / Fold change vs veh, NDUFAF7 / RFU, SLC12A2 / Fold change vs veh, SLC12A2 / RFU, IBTK / Fold change vs veh, IBTK / RFU, ESF1 / Fold change vs veh, ESF1 / Fold change vs veh, TMEM50B / RFU, TAOK1 / Fold change vs veh, TAOK1 / RFU, ACBD3 / Fold change vs veh, ACBD3 / RFU, TMA16 / Fold change vs veh, TMA16 / RFU, RWDD3 / Fold change vs veh, RWDD3 / RFU, BCAT1 / Fold change vs veh, BCAT1 / RFU, EDEM3 / Fold change vs veh, EDEM3 / RFU, TMEM33 / Fold change vs veh, TMEM33 / RFU, WDR75 / Fold change vs veh, WDR75 / RFU, AHCTF1 / Fold change vs veh, AHCTF1 / RFU, TFRC / Fold change vs veh, TFRC / RFU, ZDHHC17 / Fold change vs veh, ZDHHC17 / RFU, NOM1 / Fold change vs veh, NOM1 / RFU, ARL8B / Fold change vs veh, ARL8B / RFU, ZBTB11 / Fold change vs veh, ZBTB11 / RFU, TAMM41 / Fold change vs veh, TAMM41 / RFU, KIAA1704 /// LOC100996395 / Fold change vs veh, KIAA1704 /// LOC100996395 / RFU, ING1 / Fold change vs veh, ING1 / RFU, TRMT61B / Fold change vs veh, TRMT61B / RFU, FUBP3 / Fold change vs veh, FUBP3 / RFU, TP53 / Fold change vs veh, TP53 / RFU, TNKS2 / Fold change vs veh, TNKS2 / RFU, ZFP14 / Fold change vs veh, ZFP14 / RFU, ACTR2 / Fold change vs veh, ACTR2 / RFU, PPP3R1 / Fold change vs veh, PPP3R1 / RFU, PIK3R1 / Fold change vs veh, PIK3R1 / RFU, HNRNPA1 / Fold change vs veh, HNRNPA1 / RFU, RNF170 / Fold change vs veh, RNF170 / RFU, ZNF28 / Fold change vs veh, ZNF28 / RFU, RNGTT / Fold change vs veh, RNGTT / RFU, OGT / Fold change vs veh, OGT / RFU, BRD1 / Fold change vs veh, BRD1 / RFU, MARS / Fold change vs veh, MARS / RFU, ZNF655 / Fold change vs veh, ZNF655 / RFU, FAHD1 / Fold change vs veh, FAHD1 / RFU, BDP1 / Fold change vs veh, BDP1 / RFU, LRRCC1 / Fold change vs veh, LRRCC1 / RFU, ARID1A / Fold change vs veh, ARID1A / RFU, ZNF146 / Fold change vs veh, ZNF146 / RFU, ZNF330 / Fold change vs veh, ZNF330 / RFU, GPN3 / Fold change vs veh, GPN3 / RFU, C9orf123 / Fold change vs veh, C9orf123 / RFU, N4BP2L2 / Fold change vs veh, N4BP2L2 / RFU, ARFIP1 / Fold change vs veh, ARFIP1 / RFU, FAM179B / Fold change vs veh, FAM179B / RFU, BCL10 / Fold change vs veh, BCL10 / RFU, UHRF1BP1L / Fold change vs veh, UHRF1BP1L / RFU, BET1 / Fold change vs veh, BET1 / RFU, CNOT2 / Fold change vs veh, CNOT2 / RFU, ZNF268 / Fold change vs veh, ZNF268 / Fold change vs veh, ZNF507 / RFU, DGCR2 / Fold change vs veh, DGCR2 / RFU, WDSUB1 / Fold change vs veh, WDSUB1 / Fold change vs veh, HSP90B1 /// MIR3652 / RFU, ADSS / Fold change vs veh, ADSS / RFU, GK / Fold change vs veh, GK / RFU, ZNF148 / Fold change vs veh, ZNF148 / RFU, TAF9 / Fold change vs veh, TAF9 / RFU, SLC1A5 / Fold change vs veh, SLC1A5 / RFU, SLMO2 / Fold change vs veh, SLMO2 / RFU, ABCC4 / Fold change vs veh, ABCC4 / RFU, LOC101060439 /// RAP1B / Fold change vs veh, LOC101060439 /// RAP1B / RFU, RFX7 / Fold change vs veh, RFX7 / RFU, GTPBP10 / Fold change vs veh, GTPBP10 / RFU, CNEP1R1 / Fold change vs veh, CNEP1R1 / RFU, BIVM-ERCC5 /// ERCC5 / Fold change vs veh, BIVM-ERCC5 /// ERCC5 / RFU, ILF3 / Fold change vs veh, ILF3 / RFU 11762660_at / Fold change /veh 11762660_at / RFU VCAN (11757783_s_at) / Fold change /veh VCAN (11757783_s_at) / RFU DDX43 (11728927_at) / Fold change /veh DDX43 (11728927_at) / RFU KRT8 (11758188_x_at) / Fold change /veh KRT8 (11758188_x_at) / RFU NKD1 (11759106_at) / Fold change /veh NKD1 (11759106_at) / RFU SRD5A1 (11742802_a_at) / Fold change /veh SRD5A1 (11742802_a_at) / RFU TPSAB1 /// TPSB2 (11721975_s_at) / Fold change /veh TPSAB1 /// TPSB2 (11721975_s_at) / RFU GSTM3 (11746129_a_at) / Fold change /veh GSTM3 (11746129_a_at) / RFU IL23R (11737362_x_at) / Fold change /veh IL23R (11737362_x_at) / RFU TMEM51 (11727254_a_at) / Fold change /veh TMEM51 (11727254_a_at) / RFU PIWIL2 (11732686_x_at) / Fold change /veh PIWIL2 (11732686_x_at) / RFU ORM1 (11744905_x_at) / Fold change /veh ORM1 (11744905_x_at) / RFU CCDC152 (11743942_at) / Fold change /veh CCDC152 (11743942_at) / RFU ECM1 (11717891_a_at) / Fold change /veh ECM1 (11717891_a_at) / RFU IL23R (11748794_a_at) / Fold change /veh IL23R (11748794_a_at) / RFU TNFAIP8L3 (11732012_x_at) / Fold change /veh TNFAIP8L3 (11732012_x_at) / RFU MBOAT4 (11741988_at) / Fold change /veh MBOAT4 (11741988_at) / RFU 11764193_at / Fold change /veh 11764193_at / RFU TMEM53 (11763286_at) / Fold change /veh TMEM53 (11763286_at) / RFU MAGEB2 (11727129_at) / Fold change /veh MAGEB2 (11727129_at) / RFU TMEM200A (11744735_a_at) / Fold change /veh TMEM200A (11744735_a_at) / RFU CCDC152 (11751479_a_at) / Fold change /veh CCDC152 (11751479_a_at) / RFU FAM211A (11726209_a_at) / Fold change /veh FAM211A (11726209_a_at) / RFU RGS16 (11746705_a_at) / Fold change /veh RGS16 (11746705_a_at) / RFU VCAN (11755009_s_at) / Fold change /veh VCAN (11755009_s_at) / RFU RHOB (11743442_s_at) / Fold change /veh RHOB (11743442_s_at) / RFU RGS16 (11720943_a_at) / Fold change /veh RGS16 (11720943_a_at) / RFU RGS16 (11720944_at) / Fold change /veh RGS16 (11720944_at) / RFU, VPS4B / Fold change vs veh, VPS4B / RFU, CREB1 / Fold change vs veh, CREB1 / RFU, DNAJC13 / Fold change vs veh, DNAJC13 / RFU, GNAQ / Fold change vs veh, GNAQ / RFU, CDK5R1 / Fold change vs veh, CDK5R1 / RFU, ZRANB3 / Fold change vs veh, ZRANB3 / RFU, CUL4A / Fold change vs veh, CUL4A / RFU, CCNY / Fold change vs veh, CCNY / RFU, UFL1 / Fold change vs veh, UFL1 / RFU, COG3 / Fold change vs veh, COG3 / RFU, DIAPH2 / Fold change vs veh, DIAPH2 / RFU, SKA2 / Fold change vs veh, SKA2 / RFU, AFF3 / Fold change vs veh, AFF3 / RFU, LMF1 / Fold change vs veh, LMF1 / RFU, IPO11 / Fold change vs veh, IPO11 / RFU, DFFB / Fold change vs veh, DFFB / RFU, FOXP1 / Fold change vs veh, FOXP1 / RFU, CARD8 / Fold change vs veh, CARD8 / RFU, STRN3 / Fold change vs veh, STRN3 / RFU, ADK / Fold change vs veh, ADK / RFU, RASSF2 / Fold change vs veh, RASSF2 / RFU, WIPF1 / Fold change vs veh, WIPF1 / RFU, LARP1B / Fold change vs veh, LARP1B / RFU, RASA1 / Fold change vs veh, RASA1 / RFU, RB1 / Fold change vs veh, RB1 / RFU, PPFIA1 / Fold change vs veh, PPFIA1 / RFU, MAT2A / Fold change vs veh, MAT2A / RFU, CCT5 / Fold change vs veh, CCT5 / RFU, WDR92 / Fold change vs veh, WDR92 / RFU, CUX1 / Fold change vs veh, CUX1 / RFU, TTC7A / Fold change vs veh, TTC7A / RFU, TMEM135 / Fold change vs veh, TMEM135 / RFU, DEPTOR / Fold change vs veh, DEPTOR / RFU, CPM / Fold change vs veh, CPM / RFU, DNAJB6 / Fold change vs veh, DNAJB6 / RFU, CACNA2D3 / Fold change vs veh, CACNA2D3 / RFU, DTX4 / Fold change vs veh, DTX4 / RFU, TFCP2 / Fold change vs veh, TFCP2 / RFU, GMCL1 /// GMCL1P1 / Fold change vs veh, GMCL1 /// GMCL1P1 / RFU, AEBP2 / Fold change vs veh, AEBP2 / RFU, SNHG1 /// SNORD22 /// SNORD25 /// SNORD26 /// SNORD27 /// SNORD28 /// SNORD29 /// SNORD31 / Fold change vs veh, SNHG1 /// SNORD22 /// SNORD25 /// SNORD26 /// SNORD27 /// SNORD28 /// SNORD29 /// SNORD31 / Fold change (Aza/veh), C12orf56 (ProbeSet 11735607_a_at) / Fold change (ACY-1035/veh), C12orf56 (ProbeSet 11735607_a_at) / Fold change (Aza/veh), FGFR1OP (ProbeSet 11751329_s_at) / Fold change (ACY-1035/veh), FGFR1OP (ProbeSet 11751329_s_at) / Fold change (Aza/veh), VPS36 (ProbeSet 11739960_a_at) / Fold change (ACY-1035/veh), VPS36 (ProbeSet 11739960_a_at) / RFU SYPL1 (11715823_x_at) / Fold change /veh SYPL1 (11715823_x_at) / RFU IGFBP7 (11715501_s_at) / Fold change /veh IGFBP7 (11715501_s_at) / RFU REEP3 (11722064_at) / Fold change /veh REEP3 (11722064_at) / RFU IGLL1 (11728026_x_at) / Fold change /veh IGLL1 (11728026_x_at): dose or concentration left out as unconfirmed
# Conditions: ProbeSet 11731093_s_at; LIST B
smiles,measurement,value
Nc1ncn([C@@H]2O[C@H](CO)[C@@H](O)[C@H]2O)c(=O)n1 [azacitidine],"RFU, BRD1",186.03 RFU
